Laboratory results published in EP2711369A1, “Liposomes containing tetraether lipid derivatives” (Bernina Plus GmbH, priority 2012, dated 2014).

Tested on: Brattleboro rats
Test: In vivo testing of liposomes: urine excretion after oral DDAVP
Conditions: oral by gavage, DDAVP 10 µg/kg body weight
Description: Liposomes composed of STEL-PC and cholesterol in a ratio of 1 : 2.5 with DDVAP encapsulated as active agent were studied in the Brattleboro model.
Treatment with exogenous vasopression restores normal urinary function and exerts a temporal antidiuretic effect.
Brattleboro rats were hold singly in metabolic cages with free access to tap water. DDAVP was administered orally by gavage at a dose of 10 µg/kg body weight either as free compound or in various formulations. Urine excretion was measured over 24 h in 1 h intervals using a fraction collector.

With “1-desamino-8-D-arginine vasopressin [free DDAVP]” the “inhibition of urine excretion (duration)” value was “approximately 2 hours”.
